# Reference: paper PMC3495162 (Journal of medicinal chemistry, 2012)
# “Also recorded” adds a separate entry of the source. Where two headings read alike, the source gives them in different places.
# Legend:
# [1] = tested on: multiple xenograft tumor models; conditions: cited from earlier work
# [2] = tested on: H146 cell line; experiment: Cell death assay; format: cell-based; conditions: for Concentration with a similar effect (>50% of H146 cells undergoing cell death): 24 hr treatment, trypan blue; for Potency in induction of cell death relative to 1 and 2: H146, 24 hr
# [3] = tested on: chronic lymphocytic leukemia; conditions: Phase I/II clinical trials; cited from earlier work
# [4] = tested on: small cell lung cancer; conditions: Phase I/II clinical trials; cited from earlier work
# [5] = tested on: H146 cancer cells; experiment: Western blot of PARP and caspase-3 cleavage in cells; format: cell-based; conditions: 24 hr
# [6] = target: T1, Bcl-2 (Homo sapiens, UniProt P10415); conditions: read-out: Bcl-2 Ki; cited from earlier work
# [7] = target: T2, Bcl-xL (Homo sapiens, UniProt Q07817); conditions: read-out: Bcl-xL Ki; cited from earlier work
# [8] = target: Mcl-1 (Homo sapiens, UniProt Q07820); experiment: Fluorescence polarization competitive binding assay, Mcl-1; conditions: at concentrations as high as 5 μM
# [9] = tested on: H146 xenograft tumor model; conditions: well-tolerated dose-schedule, mice; cited from earlier work
# [10] = target: T2, Bcl-xL; experiment: Fluorescence polarization competitive binding assay, Bcl-xL; conditions: for Times less potent than 5 in binding affinity to Bcl-xL: relative to compound 5
# [11] = tested on: H1417 small-cell lung cancer cell line; experiment: Cell growth inhibition assay, H1417; format: cell-based; conditions: for Times less potent than 30 and 31 in inhibition of cell growth, H1417: relative to compounds 30 and 31
# [12] = tested on: H146 small-cell lung cancer cell line; experiment: Cell growth inhibition assay, H146; format: cell-based; conditions: for Times less potent than 30 and 31 in inhibition of cell growth, H146: relative to compounds 30 and 31
# [13] = tested on: H146 xenograft tumor model; experiment: Antitumor efficacy in H146 xenograft tumor model; format: in vivo, SCID mice; conditions: for Antitumor activity in H146 xenograft tumor model / Weight loss in tumor-bearing animals compared to the vehicle control: 28 at 50 mg/kg, 30 at 25 mg/kg, i.v., daily, 5 days a week for two weeks
# [14] = tested on: H146 xenograft tumors; experiment: Pharmacodynamics: PARP and caspase-3 cleavage in xenograft tumor tissue; format: in vivo, SCID mice; conditions: single i.v. dose, 28 at 50 mg/kg or 30 at 25 mg/kg; 3- and 6-h time-points
# [15] = Maximum tolerated dose determination; conditions: 75 mg/kg for 28, 50 mg/kg for 30, 25 mg/kg for 31
# [16] = target: T1, Bcl-2; experiment: Fluorescence polarization competitive binding assay, Bcl-2
# T2 sequence (Q07817 whole entry): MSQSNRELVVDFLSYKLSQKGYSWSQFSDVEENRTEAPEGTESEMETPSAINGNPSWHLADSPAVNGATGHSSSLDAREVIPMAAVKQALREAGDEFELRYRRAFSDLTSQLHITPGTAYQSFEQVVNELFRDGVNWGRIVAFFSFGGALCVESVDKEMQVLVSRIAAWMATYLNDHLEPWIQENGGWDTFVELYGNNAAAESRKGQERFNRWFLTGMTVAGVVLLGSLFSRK
# Chain of Mcl-1 (Q07820 whole entry): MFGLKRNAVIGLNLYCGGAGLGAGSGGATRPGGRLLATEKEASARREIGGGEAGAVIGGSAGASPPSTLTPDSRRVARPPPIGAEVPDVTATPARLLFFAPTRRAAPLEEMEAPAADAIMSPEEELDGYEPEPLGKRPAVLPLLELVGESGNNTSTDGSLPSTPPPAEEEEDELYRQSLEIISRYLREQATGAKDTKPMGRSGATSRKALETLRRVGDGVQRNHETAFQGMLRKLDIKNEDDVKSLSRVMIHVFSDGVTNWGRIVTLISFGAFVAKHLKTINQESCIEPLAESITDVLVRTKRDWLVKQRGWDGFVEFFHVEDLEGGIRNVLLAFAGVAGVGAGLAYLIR
# T1 sequence (P10415 whole entry): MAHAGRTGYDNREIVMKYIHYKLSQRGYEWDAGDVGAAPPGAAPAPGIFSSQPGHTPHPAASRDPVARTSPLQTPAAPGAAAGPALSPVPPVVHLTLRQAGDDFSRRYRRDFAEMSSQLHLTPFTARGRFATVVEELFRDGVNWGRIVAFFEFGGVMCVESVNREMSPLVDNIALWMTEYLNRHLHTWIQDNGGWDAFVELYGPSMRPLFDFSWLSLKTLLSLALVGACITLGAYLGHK
structure (smiles),measurement,setting,value
"CN(C)CC[C@H](CSc1ccccc1)Nc1ccc(S(=O)(=O)NC(=O)c2ccc(N3CCN(Cc4ccccc4-c4ccc(Cl)cc4)CC3)cc2)cc1[N+](=O)[O-] [Compound 1, reference compound]",Antitumor activity in xenograft tumor models,[1],efficiently induce tumor regression
same,Concentration with a similar effect (>50% of H146 cells undergoing cell death),[2],30 to 100 nM
CC1(C)CCC(c2ccc(Cl)cc2)=C(CN2CCN(c3ccc(C(=O)NS(=O)(=O)c4ccc(N[C@H](CCN5CCOCC5)CSc5ccccc5)c(S(=O)(=O)C(F)(F)F)c4)cc3)CC2)C1 [Compound 2],Antitumor activity in patients in chronic lymphocytic leukemia,[3],evidence of promising antitumor activity
same,Antitumor activity in xenograft tumor models,[1],efficiently induce tumor regression
same,Single-agent activity in patients with small cell lung cancer,[4],very limited single-agent activity
same,Concentration with a similar effect (>50% of H146 cells undergoing cell death),[2],30 to 100 nM
same,Concentration inducing clear cleavage of PARP and activation of caspase-3,[5],30 nM
CCn1c(C)c(C(=O)O)c(-c2cccc(N3CCN(c4ccc(NS(=O)(=O)c5ccc(N[C@H](CCN(C)C)CSc6ccccc6)c([N+](=O)[O-])c5)cc4)CC3)c2)c1-c1ccc(Cl)cc1 [Compound 3],Ki,[6],< 1 nM
same,Ki,[7],< 1 nM
same,Binding to Mcl-1,[8],no appreciable binding
same,Antitumor activity in H146 xenograft model,[9],fails to achieve durable tumor regression
Cc1c(C(=O)O)c(-c2cccc(N3CCN(c4ccc(NS(=O)(=O)c5ccc(N[C@H](CCN(C)C)CSc6ccccc6)c([N+](=O)[O-])c5)cc4)CC3)c2)c(-c2ccc(Cl)cc2)n1C [Compound 4],Binding to Mcl-1,[8],no appreciable binding
same,Ki,[10],< 1 nM
"Cc1c(C(=O)NCCCN2CCN(C)CC2)c(-c2cccc(N3CCN(c4ccc(NS(=O)(=O)c5ccccc5)cc4)CC3)c2)c(-c2ccc(Cl)cc2)n1C [Compound 6, 5-(4-Chlorophenyl)-1,2-dimethyl-N-(3-(4-methylpiperazin-1-yl)propyl)-4-(3-(4-(4-(phenylsulfonamido)phenyl)piperazin-1-yl)phenyl)-1H-pyrrole-3-carboxamide]",Times less potent than 5 in binding affinity to Bcl-xL,[10],30 times
"Cc1c(C(=O)NCCCN2CCN(C)CC2)c(-c2cccc(N3CCN(c4ccc(NS(=O)(=O)c5cccc(Br)c5)cc4)CC3)c2)c(-c2ccc(Cl)cc2)n1C [Compound 9, 5-(4-Chlorophenyl)-4-(3-(4-(4-(3-bromophenylsulfonamido)phenyl)piperazin-1-yl)phenyl) -1,2-dimethyl-N-(3-(4-methylpiperazin-1-yl)propyl)-1H-pyrrole-3-carboxamide]",Times less potent than 5 in binding affinity to Bcl-xL,[10],slightly less potent than 5
"Cc1c(C(=O)NCCCN2CCN(C)CC2)c(-c2cccc(N3CCN(c4ccc(NS(=O)(=O)c5cccc(S(=O)(=O)C(F)(F)F)c5)cc4)CC3)c2)c(-c2ccc(Cl)cc2)n1C [Compound 18, 5-(4-Chlorophenyl)-1,2-dimethyl-N-(3-(4-methylpiperazin-1-yl)propyl)-4-(3-(4-(4-(3-(trifluoromethylsulfonyl)phenylsulfonamido)phenyl)piperazin-1-yl)phenyl)-1H-pyrrole-3-carboxamide]",Times less potent than 5 in binding affinity to Bcl-xL,[10],as potent as 5
"Cc1c(C(=O)O)c(-c2cccc(N3CCN(c4ccc(NS(=O)(=O)c5ccc(N[C@H](CCN(C)C)CSc6ccccc6)c(S(=O)(=O)C(F)(F)F)c5)cc4)CC3)c2)c(-c2ccc(Cl)cc2)n1C [Compound 22, (R)-5-(4-Chlorophenyl)-4-(3-(4-(4-(4-(4-(dimethylamino)-1-(phenylthio)butan-2-ylamino)-3-(trifluoromethylsulfonyl)phenylsulfonamido)phenyl)piperazin-1-yl)phenyl)-1,2-dimethyl-1H-pyrrole-3-carboxylic Acid]",Binding to Mcl-1,[8],no appreciable binding
same,Ki,[10],< 1 nM
"Cc1c(C(=O)O)c(-c2cccc(N3CCN(c4ccc(NS(=O)(=O)c5ccc(N[C@H](CCN6CCOCC6)CSc6ccccc6)c(S(=O)(=O)C(F)(F)F)c5)cc4)CC3)c2)c(-c2ccc(Cl)cc2)n1C [Compound 23, (R)-5-(4-Chlorophenyl)-1,2-dimethyl-4-(3-(4-(4-(4-(4-morpholino-1-(phenylthio)butan-2-ylamino)-3-(trifluoromethylsulfonyl)phenylsulfonamido)phenyl)piperazin-1-yl)phenyl)-1H-pyrrole-3-carboxylic Acid]","Times less potent than 22 in inhibition of cell growth, H1417",[11]; relative to compound 22,3–5 times
same,"Times less potent than 22 in inhibition of cell growth, H146",[12]; relative to compound 22,3–5 times
"Cc1c(C(=O)O)c(-c2cccc(N3CCN(c4ccc(NS(=O)(=O)c5ccc(N[C@H](CCN6CCC(O)CC6)CSc6ccccc6)c(S(=O)(=O)C(F)(F)F)c5)cc4)CC3)c2)c(-c2ccc(Cl)cc2)n1C [Compound 28, (R)-5-(4-Chlorophenyl)-4-(3-(4-(4-(4-(4-(4-hydroxypiperidin-1-yl)-1-(phenylthio)butan-2-ylamino)-3-(trifluoromethylsulfonyl)phenylsulfonamido)phenyl)piperazin-1-yl)phenyl)-1,2-dimethyl-1H-pyrrole-3-carboxylic Acid]",Antitumor activity in H146 xenograft tumor model,[13],"effective in inhibition of tumor growth; also recorded: effectively inhibits tumor growth, it fails to induce tumor regression"
same,Weight loss in tumor-bearing animals compared to the vehicle control,[13],less than 10%
same,Potency in induction of cell death relative to 1 and 2,[2],somewhat less potent than 1 and 2
same,Cleavage of PARP and caspase-3 in H146 tumor tissues,[14],robust cleavage of PARP and caspase-3
same,Weight loss at higher doses,[15],more than 10%
same,Concentration inducing clear cleavage of PARP and activation of caspase-3,[5],100 nM
same,Ki,[10],< 1 nM
"CCn1c(C)c(C(=O)O)c(-c2cccc(N3CCN(c4ccc(NS(=O)(=O)c5ccc(N[C@H](CCN6CCC(O)CC6)CSc6ccccc6)c(S(=O)(=O)C(F)(F)F)c5)cc4)CC3)c2)c1-c1ccc(Cl)cc1 [Compound 30, (R)-5-(4-Chlorophenyl)-1-ethyl-4-(3-(4-(4-(4-(4-(4-hydroxypiperidin-1-yl)-1-(phenylthio)butan-2-ylamino)-3-(trifluoromethylsulfonyl)phenylsulfonamido)phenyl)piperazin-1-yl)phenyl)-2-methyl-1H-pyrrole-3-carboxylic Acid]",Antitumor activity in H146 xenograft tumor model,[13],"rapid, complete and durable tumor regression"
same,Weight loss in tumor-bearing animals compared to the vehicle control,[13],less than 10%
same,Tumor-free mice at day 47 (15 days post-treatment),"[13]; 30 at 25 mg/kg i.v., 7 mice treated",all mice were tumor-free
same,Potency in induction of cell death relative to 1 and 2,[2],several times more potent than 1 and 2
same,Cleavage of PARP and caspase-3 in H146 tumor tissues,[14],robust cleavage of PARP and caspase-3
same,Ki,[16],< 1 nM
same,Weight loss at higher doses,[15],more than 10%
same,Concentration inducing clear cleavage of PARP and activation of caspase-3,[5],10 nM
same,Ki,[10],< 1 nM
"Cc1c(C(=O)O)c(-c2cccc(N3CCN(c4ccc(NS(=O)(=O)c5ccc(N[C@H](CCN6CCC(O)CC6)CSc6ccccc6)c(S(=O)(=O)C(F)(F)F)c5)cc4)CC3)c2)c(-c2ccc(Cl)cc2)n1C(C)C [Compound 31, (R)-5-(4-Chlorophenyl)-4-(3-(4-(4-(4-(4-(4-hydroxypiperidin-1-yl)-1-(phenylthio)butan-2-ylamino)-3-(trifluoromethylsulfonyl)phenylsulfonamido)phenyl)piperazin-1-yl)phenyl)-1-isopropyl-2-methyl-1H-pyrrole-3-carboxylic Acid]",Potency in induction of cell death relative to 1 and 2,[2],several times more potent than 1 and 2
same,Weight loss at higher doses,[15],more than 10%
same,Ki,[10],< 1 nM
"CCCn1c(C)c(C(=O)O)c(-c2cccc(N3CCN(c4ccc(NS(=O)(=O)c5ccc(N[C@H](CCN6CCC(O)CC6)CSc6ccccc6)c(S(=O)(=O)C(F)(F)F)c5)cc4)CC3)c2)c1-c1ccc(Cl)cc1 [Compound 32, (R)-5-(4-Chlorophenyl)-4-(3-(4-(4-(4-(4-(4-hydroxypiperidin-1-yl)-1-(phenylthio)butan-2-ylamino)-3-(trifluoromethylsulfonyl)phenylsulfonamido)phenyl)piperazin-1-yl)phenyl)-2-methyl-1-propyl-1H-pyrrole-3-carboxylic Acid]","Times less potent than 30 and 31 in inhibition of cell growth, H1417",[11],> 10 times
same,"Times less potent than 30 and 31 in inhibition of cell growth, H146",[12],> 10 times
same,Ki,[10],< 1 nM
"CCCCn1c(C)c(C(=O)O)c(-c2cccc(N3CCN(c4ccc(NS(=O)(=O)c5ccc(N[C@H](CCN6CCC(O)CC6)CSc6ccccc6)c(S(=O)(=O)C(F)(F)F)c5)cc4)CC3)c2)c1-c1ccc(Cl)cc1 [Compound 33, (R)-1-Butyl-5-(4-chlorophenyl)-4-(3-(4-(4-(4-(4-(4-hydroxypiperidin-1-yl)-1-(phenylthio)butan-2-ylamino)-3-(trifluoromethylsulfonyl)phenylsulfonamido)phenyl)piperazin-1-yl)phenyl)-2-methyl-1H-pyrrole-3-carboxylic acid]","Times less potent than 30 and 31 in inhibition of cell growth, H1417",[11],> 10 times
same,"Times less potent than 30 and 31 in inhibition of cell growth, H146",[12],> 10 times
same,Ki,[10],< 1 nM
